# From publication PMC8809056 (Science (New York, N.y.), 2021)
# Tested on: SARS-CoV-2 (nCoV/Washington/1/2020)
# Assay: microbe, parasite or virus in culture
# Type: cell-based
# Details: not given
row,SMILES,Inhibition of SARS-CoV-2 infection when added after infection
1,Cc1ccc(NC(=O)c2ccc(CN3CCN(C)CC3)cc2)cc1Nc1nc(-c2cccnc2)cs1 [Masitinib],effective in inhibiting SARS-CoV-2 infection

# Same assay, conditions: A549-ACE2 cells
row,SMILES,Inhibition of SARS-CoV-2 infection (in words)
1,Cc1ccc(NC(=O)c2ccc(CN3CCNCC3)cc2)cc1Nc1nc(-c2cccnc2)cs1 [AB3280],maintains its antiviral activity
2,C[C@@H]1[C@H](O)[C@@H](C)/C=C/C=C/C=C/C=C/C=C/C=C/C=C/[C@H](O[C@@H]2O[C@H](C)[C@@H](O)[C@H](N)[C@@H]2O)C[C@@H]2O[C@](O)(C[C@@H](O)C[C@@H](O)[C@H](O)CC[C@@H](O)C[C@@H](O)CC(=O)O[C@H]1C)C[C@H](O)[C@H]2C(=O)O [Amphotericin B],did not inhibit SARS-CoV-2 infection
3,COC(=O)N[C@H](C(=O)N1CCC[C@H]1c1nc(-c2ccc3c(c2)O[C@@H](c2ccccc2)n2c-3cc3cc(-c4c[nH]c([C@@H]5CCCN5C(=O)[C@@H](NC(=O)OC)C(C)C)n4)ccc32)c[nH]1)C(C)C [Elbasvir],did not inhibit SARS-CoV-2 infection

# Same assay, conditions: Severe acute respiratory syndrome coronavirus 2, A549-ACE2; read-out: EC50 against SARS-CoV-2 infection
row,SMILES,EC50
1,CN1CCCC(n2nc(Cc3ccc(Cl)cc3)c3ccccc3c2=O)CC1 (stereo not drawn) [Azelastine],2400 nM
2,Cc1ccc(NC(=O)c2ccc(CN3CC[C@H](N(C)C)C3)c(C(F)(F)F)c2)cc1Nc1nccc(-c2cncnc2)n1 [Bafetinib],2200 nM
3,COc1ccc2cc1Oc1ccc(cc1)C[C@H]1c3c(cc4c(c3Oc3cc5c(cc3OC)CCN(C)[C@@H]5C2)OCO4)CCN1C [Cepharanthine],100 nM
4,OCCN1CCN(CCC=C2c3ccccc3Sc3ccc(C(F)(F)F)cc32)CC1 [Flupenthixol],760 nM
5,CS(=O)(=O)CCNCc1ccc(-c2ccc3ncnc(Nc4ccc(OCc5cccc(F)c5)c(Cl)c4)c3c2)o1 [Lapatinib],1600 nM
6,CCC(CC)COC(=O)[C@H](C)N[P@](=O)(OC[C@H]1O[C@@](C#N)(c2ccc3c(N)ncnn23)[C@H](O)[C@@H]1O)Oc1ccccc1 [Remdesivir],720 nM
7,CC(CN(C)C)CN1c2ccccc2CCc2ccccc21 (stereo not drawn) [Trimipramine],1500 nM

# Tested on: SARS-CoV-2 wild-type, B.1.1.7, B.1.351 and P.1
# Assay: not given
# Type: cell-based
# Details: not given
row,SMILES,Viral progeny production
1,Cc1ccc(NC(=O)c2ccc(CN3CCN(C)CC3)cc2)cc1Nc1nc(-c2cccnc2)cs1 [Masitinib],dramatically reduced viral progeny production
